“And” between values parts separate entries of the source, which are not always exact repeats. Identical values can stand only once. The source made the active and inactive calls. For most assays here, no stated cut-off is given here; in the data, actives have a measured EC50 and inactives only a lower limit.
Key:
[1] = target: T1, Rac GTPase-activating protein 1 (Homo sapiens, UniProt Q9H0H5); assay: MgcRacGAP GTPase-activating activity inhibitors, confirmation, biochemical, ADP Hunter fluorescence, primary and confirmatory (AID 624330); type: functional
T1 sequence (Q9H0H5 whole entry): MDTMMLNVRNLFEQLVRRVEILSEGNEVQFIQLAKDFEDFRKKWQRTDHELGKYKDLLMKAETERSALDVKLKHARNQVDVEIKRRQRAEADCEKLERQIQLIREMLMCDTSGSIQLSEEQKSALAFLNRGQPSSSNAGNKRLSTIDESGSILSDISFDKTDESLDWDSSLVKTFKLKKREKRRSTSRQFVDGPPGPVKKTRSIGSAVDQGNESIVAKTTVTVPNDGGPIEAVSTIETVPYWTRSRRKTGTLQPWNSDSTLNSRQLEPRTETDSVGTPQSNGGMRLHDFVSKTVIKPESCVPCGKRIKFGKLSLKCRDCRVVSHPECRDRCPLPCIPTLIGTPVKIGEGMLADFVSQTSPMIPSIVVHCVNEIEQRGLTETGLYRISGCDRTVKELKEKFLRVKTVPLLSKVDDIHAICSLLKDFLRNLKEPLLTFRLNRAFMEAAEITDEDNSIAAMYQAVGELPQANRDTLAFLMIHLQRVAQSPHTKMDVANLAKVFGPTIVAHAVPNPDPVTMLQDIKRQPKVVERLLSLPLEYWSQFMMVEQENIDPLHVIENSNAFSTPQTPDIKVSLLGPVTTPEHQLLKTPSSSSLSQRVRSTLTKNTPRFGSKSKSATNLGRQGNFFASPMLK

[2] = Luminescence Cell-Based Dose Response HTS to Identify Activators of Luciferase Translation or Activity in H4 […] Cells. [Related pubchem assays: 1829 (Project Summary), 1814 (Primary HTS)]; type: functional
[3] = inhibitors of intracellular T. cruzi replication, confirmation, NIH3T3 host cells, beta-gal luminescence (AID 2044); type: functional, cell-based;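 further: intracellular parasites grown in NIH/3T3 mouse fibroblasts as host cells; luminescent beta-galactosidase reporter signal from transgenic T. cruzi replicating inside host cells; inhibitors lower the luminescence signal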
[4] = cytotoxicity toward NIH3T3 fibroblasts, dose response, counter-screen, cell-based, ATP luminescence, mouse fibroblasts (AID 2010); type: functional;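 further: cells exposed to compound for about 90 hours before reading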
[5] = test system: Streptococcus sp. 'group A'; assay: growth inhibition of control SK(-) GAS strain, dose response, counter-screen for streptokinase expression inhibitor project, luminescence, kanamycin, BacTiterGlo, confirmation (AID 1900); type: functional, organism-based
[6] = target: T2, Streptokinase A (Streptococcus pyogenes serotype M1, UniProt P10520); assay: S. pyogenes streptokinase expression inhibitors, potency, dose response, plasminogen activation absorbance, OD405 (AID 1914); type: functional, Streptococcus pyogenes M1 GAS;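 further: secreted streptokinase activity via plasminogen activation per viability signal from cell pellet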
T2 sequence (P10520 whole entry): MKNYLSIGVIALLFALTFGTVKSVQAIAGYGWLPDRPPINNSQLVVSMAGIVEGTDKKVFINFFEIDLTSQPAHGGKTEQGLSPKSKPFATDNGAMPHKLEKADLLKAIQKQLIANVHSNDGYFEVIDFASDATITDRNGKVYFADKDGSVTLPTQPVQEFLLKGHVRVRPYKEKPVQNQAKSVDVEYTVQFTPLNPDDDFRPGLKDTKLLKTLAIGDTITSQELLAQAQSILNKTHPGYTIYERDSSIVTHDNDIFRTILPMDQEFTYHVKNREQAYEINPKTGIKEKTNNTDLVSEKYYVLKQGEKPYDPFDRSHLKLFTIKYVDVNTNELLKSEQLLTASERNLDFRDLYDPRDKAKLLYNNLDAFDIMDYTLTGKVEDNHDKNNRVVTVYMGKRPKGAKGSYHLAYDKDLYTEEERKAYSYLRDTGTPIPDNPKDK

[7] = test system: Streptococcus; assay: Group A Streptococcus viability loss, dose response, counter-screen for streptokinase expression inhibitor project, luminescence, BacTiterGlo (AID 1915); type: functional, organism-based;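 further: potency for reduction of bacterial viability or growth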
[8] = target: T3, Cytochrome P450 1A2 (Homo sapiens, UniProt P05177);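 further: PubChem cytochrome P450 panel assay, CYP1A2 panel member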
T3 sequence (P05177 whole entry): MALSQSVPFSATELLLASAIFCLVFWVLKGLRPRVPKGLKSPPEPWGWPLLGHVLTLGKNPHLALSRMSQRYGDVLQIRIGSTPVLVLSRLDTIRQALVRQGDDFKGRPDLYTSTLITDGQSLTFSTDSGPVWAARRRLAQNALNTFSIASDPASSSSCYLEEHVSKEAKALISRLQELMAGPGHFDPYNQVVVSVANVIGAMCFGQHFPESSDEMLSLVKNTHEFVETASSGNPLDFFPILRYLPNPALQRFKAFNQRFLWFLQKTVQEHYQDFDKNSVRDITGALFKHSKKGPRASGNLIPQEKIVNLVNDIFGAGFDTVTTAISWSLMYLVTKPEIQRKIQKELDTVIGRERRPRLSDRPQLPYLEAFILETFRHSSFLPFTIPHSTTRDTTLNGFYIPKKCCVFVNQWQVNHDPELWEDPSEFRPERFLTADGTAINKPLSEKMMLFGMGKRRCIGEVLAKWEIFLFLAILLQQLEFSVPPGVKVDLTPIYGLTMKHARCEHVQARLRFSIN

In the case of `CN1CCC(N(C)CC(=O)Nc2ccc3c(c2)OC(F)(F)O3)CC1`, the IC50 [1] is reported as 65.9 µM (active).

With `N=C(NOC(=O)c1cccc(F)c1)c1ccccc1` the EC50 [2] was > 120 µM (not active).

In the case of `CC(CCN1CCN(CCO)CC1)c1ccccc1` (centres undefined), the IC50 [1] is reported as 153 µM (active).

With `O=C(Nc1ccc(-c2csc(Nc3ccc(Cl)cc3)n2)cc1)c1cccc(C(F)(F)F)c1` the EC50 [3] was 1.76 µM (active) and the EC50 [4] was 7.75 µM (active).

With `COc1cc(/C=N/NC(=O)c2nnn(-c3nonc3N)c2C(C)C)ccc1O` the IC50 [1] was 31 µM (active).

For `N#CCCN1CCN(CCC#N)c2ccccc21`, the IC50 [1] was 16.1 µM (active).

With `Cc1onc(-c2ccccc2Cl)c1C(=O)O/N=C(\N)c1ccccc1` the EC50 [3] was 2.34 µM (active) and the EC50 [4] was > 60 µM (not active).

In the case of `Cc1ccc(S(=O)(=O)N2CCC(C(=O)Nc3ccc(S(=O)(=O)N4CCCC4)cc3)CC2)cc1C`, the EC50 [3] is reported as 0.795 µM (active) and the EC50 [4] is reported as > 30 µM (not active).

For `O=C(CSc1nc2nncc-2c(O)n1-c1ccc(Cl)c(Cl)c1)NCc1ccccc1Cl`, the EC50 [3] was 2.43 µM (active) and the EC50 [4] was > 60 µM (inconclusive).

In the case of `CCCCc1sc(-c2c(C#N)c(N)nc3c2CCCCC3)cc1[N+](=O)[O-]`, the EC50 [3] is reported as 1.98 µM (active) and the EC50 [4] is reported as > 60 µM (not active).

With `COc1ccc(C(=O)NCC(=O)OCC(=O)N2N=C(c3ccc(Cl)cc3)CC2c2ccco2)cc1OC` (centres undefined) the EC50 [5] was 47 µM (active), the EC50 [6] was > 150 µM (not active) and the EC50 [7] was > 150 µM (not active).

For `O=C(Nc1ccccc1N1CCCC1)c1ccc2c(c1)OCO2`, the EC50 [5] was > 150 µM (not active), the EC50 [6] was > 150 µM (not active) and the EC50 [7] was > 150 µM (not active).

In the case of `COc1ccc(NC(=O)c2ccc(NC(=O)CN3CCN(c4ccc(O)cc4)CC3)cc2)cc1`, the IC50 [1] is reported as 63 µM (active).

With `CC(C)Sc1cc(N2CCCC2)nc(-c2ccccc2)n1` the EC50 [5] was 12.3 µM (active), the EC50 [6] was 11.2 µM (active) and the EC50 [7] was > 150 µM (not active).

For `COc1cccc(/C=N/NC(=O)c2cccc([N+](=O)[O-])c2)c1OS(=O)(=O)c1ccc(C)cc1`, the AC50 [8] was 6.31 µM (inconclusive).

For `NS(=O)(=O)c1ccc(CCNCC(=O)N2CCC(Cc3ccccc3)CC2)cc1`, the IC50 [1] was 283 µM (active).

With `O=C(NCCCN1CCN(CCCNC(=O)c2cccc([N+](=O)[O-])c2)CC1)c1cccc([N+](=O)[O-])c1` the EC50 [3] was 1.11 µM (active) and the EC50 [4] was > 30 µM (not active).

In the case of `CC(=O)CCCCn1c(=O)c2c(ncn2C)n(C)c1=O` [PENTOXIFYLLINE], the AC50 [8] is reported as 12.6 µM (inconclusive).

In the case of `C[C@H]1C=C2C=C[C@H](C)[C@H](CC[C@@H]3C[C@@H](O)CC(=O)O3)[C@H]2[C@@H](OC(=O)[C@@H](C)CCO)C1`, the AC50 [8] is reported as 31.6 µM (inconclusive).

For `C[C@@H]1C[C@H](OC(=O)c2ccccc2O)CC(C)(C)C1`, the AC50 [8] was 12.6 µM (inconclusive).

In the case of `Fc1ccc(N2CCN(Cc3c[nH]c4ccccc34)CC2)cc1`, the EC50 [3] is reported as 0.69 µM (active) and the EC50 [4] is reported as > 60 µM (not active).

In the case of `COc1ccccc1-c1nnc(NC(=O)CCS(=O)(=O)c2ccccc2)o1`, the EC50 [5] is reported as > 150 µM (not active), the EC50 [6] is reported as > 150 µM (not active) and the EC50 [7] is reported as > 150 µM (not active).

With `COc1ccc(CN2CCN(Cc3ccc4ccccc4c3)CC2)cc1OC` the IC50 [1] was 76.4 µM (active).

In the case of `CSc1ccc(/C=C2\CCn3c2nc2cc(C(=O)O)ccc2c3=O)cc1`, the EC50 [5] is reported as 23.1 µM (active), the EC50 [6] is reported as > 150 µM (not active) and the EC50 [7] is reported as > 150 µM (not active).

With `CCc1ccc2c(c1)C(c1ccc(N3CCOCC3)cc1)=NNC(c1ccncc1)=N2` the EC50 [3] was 1.5 µM (active) and the EC50 [4] was > 30 µM (not active).

With `CCC/C=C(\CCC)C(NS(=O)(=O)c1ccc(Cl)cc1)c1ccccc1` (centres undefined) the AC50 [8] was 12.6 µM (inconclusive).

For `O=C(NC(=S)N1CCCCC1c1cccnc1)c1ccc(F)cc1` (centres undefined), the EC50 [5] was > 150 µM (not active), the EC50 [6] was > 150 µM (not active) and the EC50 [7] was > 150 µM (not active).

For `O=C(NC1CCCC1)C(c1ccccc1)N(Cc1cccnc1)C(=O)Cc1cccs1` (centres undefined), the EC50 [3] was 1.45 µM (active) and the EC50 [4] was > 60 µM (not active).

In the case of `CC(C)/C=C1\CC/C(=C\c2cccnc2)C1=O`, the EC50 [3] is reported as 1.14 µM (active) and the EC50 [4] is reported as > 60 µM (not active).

For `O=C1CCc2cc(OCCCCc3nnnn3C3CCCCC3)ccc2N1` [CILOSTAZOL], the AC50 [8] was 39.8 µM (inconclusive).

For `CCN1C(=O)c2ccc(C(=O)Nc3ccc(O)cc3C)cc2C1=O`, the IC50 [1] was 108 µM (active).

For `COc1c(Cl)cc(Cl)cc1C(=O)Nc1ccc(NC(=O)c2cccs2)cc1`, the EC50 [3] was 1.95 µM (active) and the EC50 [4] was > 60 µM (not active).

For `Cc1ccc(NP(=O)(c2ccc(N(C)C)cc2NC(=O)c2cccs2)N2CCOCC2)cc1` (centres undefined), the EC50 [3] was 1.49 µM (active) and the EC50 [4] was > 60 µM (not active).

With `O=C(CCC1CCCN(Cc2ccncc2)C1)NCc1ccc(F)c(F)c1` (centres undefined) the EC50 [3] was 0.661 µM (active) and the EC50 [4] was > 60 µM (not active).

In the case of `COc1ccc(NC(=O)CN(C)C(=O)/C=C/c2cn(-c3ccccc3)nc2-c2ccc(F)cc2)cc1`, the EC50 [5] is reported as 26.5 µM (active), the EC50 [6] is reported as 53.8 µM (inconclusive) and the EC50 [7] is reported as 68.1 µM (active).

For `COc1ccc(CCC(=O)N2CCN(C3CCCCC3)CC2)cc1`, the EC50 [3] was 1.53 µM (active) and the EC50 [4] was > 60 µM (not active).

For `Cc1oc(-c2cc(Cl)cc(Cl)c2)cc1C(=O)NCCc1ccccc1`, the EC50 [5] was 17.3 µM (active), the EC50 [6] was 2.57 µM (active) and the EC50 [7] was 48.3 µM (active).

With `Brc1ccc(OCc2ccccc2)c(CNCc2ccncc2)c1` the EC50 [3] was 0.802 µM (active) and the EC50 [4] was > 60 µM (not active).

In the case of `Nc1ccc(OCc2ccco2)cc1`, the IC50 [1] is reported as 49.8 µM (active).

In the case of `COc1cccc(C(=O)C2CCCN(Cc3ccc(OC)c(Cn4cncn4)c3)C2)c1` (centres undefined), the EC50 [3] is reported as 0.398 µM (active) and the EC50 [4] is reported as > 60 µM (not active).

For `CC(=O)Nc1ccc(OC(=O)c2cc3ccccc3oc2=O)cc1`, the IC50 [1] was 23.2 µM (active).

With `CC(C)c1ccc(/C=N/N2CCCCC2)cc1` the IC50 [1] was 220 µM (active).

With `CCOC(=O)C1(CCOc2ccccc2)CCN(Cc2cccc3nonc23)CC1` the EC50 [3] was 1.49 µM (active) and the EC50 [4] was > 60 µM (not active).

In the case of `Cc1ccc(NC(=O)COc2ccc(CCO)cc2-n2nc3ccccc3n2)cc1C`, the EC50 [3] is reported as 1.61 µM (active) and the EC50 [4] is reported as > 60 µM (inconclusive).

For `COc1c(-c2ccc(O)c(O)c2)oc2cc(O)cc(O)c2c1=O` [3-O-METHYLQUERCETIN], the IC50 [1] was 30.3 µM (active).

With `CCCN(CCC)[C@H]1CCc2c(F)ccc(O)c2C1` the AC50 [8] was 12.6 µM (inconclusive) and 25.1 µM (inconclusive).

In the case of `CCN1CCN(c2ccc(S(=O)(=O)N3CCOCC3)cc2NC(=O)COc2ccc(F)cc2Cl)CC1`, the EC50 [3] is reported as 1.06 µM (active) and the EC50 [4] is reported as 19.2 µM (active).

In the case of `CCOC(=O)c1[nH]c2ccccc2c1N=C(S)Nc1ccccc1C`, the IC50 [1] is reported as 65.9 µM (active).

With `CC(C)c1ccc(/C=N/n2c(S)nnc2-c2ccccc2)cc1` the EC50 [5] was 18.3 µM (active), the EC50 [6] was > 150 µM (not active) and the EC50 [7] was > 150 µM (not active).

With `CC(C)(C)OC(=O)NCCCC[C@H](NC(=O)c1[nH]cnc1C(=O)Nc1ccc(Cl)cc1)C(=O)OC(C)(C)C` the EC50 [5] was 3.64 µM (active), the EC50 [6] was > 150 µM (not active) and the EC50 [7] was 8.04 µM (active).
